Our source for the inhibition, cell death ratio and IC50 values is publication PMC12206033, “Selective inhibition of TRPV3 channel by natural rosmarinic acid and its analogs for alleviation of skin lesions through downregulation of NF-κB pathway” (The Journal of Biological Chemistry, 2025).

Assay type in all cases: cell-based
The target of one test is T1, hTRPV1 (Homo sapiens, UniProt Q8NER1).
T1 construct: expressed in transfected cells; host or cells: HEK293T
Nature of the test: whole-cell patch-clamp of hTRPV1 currents activated by capsaicin. As to conditions: ROSA 50 μM; agonist capsaicin 1 μM; read-out: inhibition of TRPV1 currents. On the procedure: (§1) HEK293T cell line was obtained from the Cell Resource Center, Peking Union Medical College. HEK293T cells were maintained in Dulbecco’s modified Eagle’s medium (DMEM, Gibco) supplemented with 10% fetal bovine serum at 37 °C with 5% CO2. […] The next day, determine the plasmid transfection status by observing green fluorescence based on expression of enhanced GFP as an indicator. […] When conducting experiments on HEK293T cells transfected with G573S point mutant TRPV3 plasmid, we replaced culture medium with or without compounds after 4 h of transfection and then observed green fluorescence of HEK293T cell after 10 h. As for the relative fluorescence intensity, we convert the image to 8 bit grayscale using ImageJ (Https://imagej.net/software/fiji/downloads) and set an appropriate threshold value to reduce background noise and enhance the image contrast.
(§2) All patch-clamp recordings were conducted 16 to 24 h after transfection using an EPC10 amplifier powered by PatchMaster software (HEKA) (https://www.heka.com/downloads/downloads_main.html#down_patchmaster) at room temperature. […] Currents were recorded at a potential ramp from −100 mV to +100 mV for 1000 ms with 1000-ms intervals (for whole-cell recordings) or a persistent potential of −60 mV (inside-out patch recordings). […]
A general note: Patch clamp records ionic current or voltage across a cell membrane.

For the next test, the target named is T2, mTRPV2 (Mus musculus, UniProt Q9WTR1).
T2 construct: expressed in transfected cells; host or cells: HEK293T
T2 sequence (Q9WTR1 1-756): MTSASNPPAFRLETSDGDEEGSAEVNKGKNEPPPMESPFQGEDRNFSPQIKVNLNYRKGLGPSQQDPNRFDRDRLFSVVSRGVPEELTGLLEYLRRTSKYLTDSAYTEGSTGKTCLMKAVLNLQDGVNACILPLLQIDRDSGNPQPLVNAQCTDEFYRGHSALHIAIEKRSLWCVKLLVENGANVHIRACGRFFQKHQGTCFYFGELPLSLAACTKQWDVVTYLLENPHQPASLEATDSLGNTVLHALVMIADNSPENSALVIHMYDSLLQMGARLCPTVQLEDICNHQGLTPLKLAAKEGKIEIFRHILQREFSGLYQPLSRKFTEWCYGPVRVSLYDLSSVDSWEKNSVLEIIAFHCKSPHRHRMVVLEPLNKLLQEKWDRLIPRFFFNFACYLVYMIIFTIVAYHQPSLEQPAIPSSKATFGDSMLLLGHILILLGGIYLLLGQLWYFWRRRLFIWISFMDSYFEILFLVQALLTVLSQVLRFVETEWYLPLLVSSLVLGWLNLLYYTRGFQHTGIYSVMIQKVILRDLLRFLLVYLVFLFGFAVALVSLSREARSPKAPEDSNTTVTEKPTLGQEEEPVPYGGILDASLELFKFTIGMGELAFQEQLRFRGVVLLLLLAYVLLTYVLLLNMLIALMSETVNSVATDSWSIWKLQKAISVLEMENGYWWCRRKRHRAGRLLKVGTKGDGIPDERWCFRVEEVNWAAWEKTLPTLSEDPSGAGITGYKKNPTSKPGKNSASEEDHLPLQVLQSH
Nature of the test: whole-cell patch-clamp of mTRPV2 currents activated by 2-APB. As to conditions: ROSA 50 μM; agonist 2-APB 2 mM; read-out: inhibition of TRPV2 currents. The procedure:
as §1, §2

The subject of test [1] is HEK293T cells expressing hTRPV3. Nature of the test: Hoechst 33342/propidium iodide double staining cell death assay. As to conditions: inhibitor 20 μM added 1 h before Car 300 μM. The procedure: For cell death assay, HEK293T cells transfected with hTRPV3 were seeded in 6-well plates and randomly divided into different groups. TRPV3 and NF-κB inhibitors were added 1 h before the addition of Car. After administration of Car for 1 h, cell death was detected using Hoechst 33342/propidium iodide Double Stain Kit (Solarbio). After staining, cells were resuspended with PBS buffer. Five random view images in each group were taken under a microscope (Eclipse Ti, Nikon) and counted using ImageJ software (National Institutes of Health).

For a further test, the target named is T3, hTRPV3 (Homo sapiens, UniProt Q8NET8).
T3 construct: expressed in transfected cells; host or cells: HEK293T
T3 sequence (Q8NET8 1-790): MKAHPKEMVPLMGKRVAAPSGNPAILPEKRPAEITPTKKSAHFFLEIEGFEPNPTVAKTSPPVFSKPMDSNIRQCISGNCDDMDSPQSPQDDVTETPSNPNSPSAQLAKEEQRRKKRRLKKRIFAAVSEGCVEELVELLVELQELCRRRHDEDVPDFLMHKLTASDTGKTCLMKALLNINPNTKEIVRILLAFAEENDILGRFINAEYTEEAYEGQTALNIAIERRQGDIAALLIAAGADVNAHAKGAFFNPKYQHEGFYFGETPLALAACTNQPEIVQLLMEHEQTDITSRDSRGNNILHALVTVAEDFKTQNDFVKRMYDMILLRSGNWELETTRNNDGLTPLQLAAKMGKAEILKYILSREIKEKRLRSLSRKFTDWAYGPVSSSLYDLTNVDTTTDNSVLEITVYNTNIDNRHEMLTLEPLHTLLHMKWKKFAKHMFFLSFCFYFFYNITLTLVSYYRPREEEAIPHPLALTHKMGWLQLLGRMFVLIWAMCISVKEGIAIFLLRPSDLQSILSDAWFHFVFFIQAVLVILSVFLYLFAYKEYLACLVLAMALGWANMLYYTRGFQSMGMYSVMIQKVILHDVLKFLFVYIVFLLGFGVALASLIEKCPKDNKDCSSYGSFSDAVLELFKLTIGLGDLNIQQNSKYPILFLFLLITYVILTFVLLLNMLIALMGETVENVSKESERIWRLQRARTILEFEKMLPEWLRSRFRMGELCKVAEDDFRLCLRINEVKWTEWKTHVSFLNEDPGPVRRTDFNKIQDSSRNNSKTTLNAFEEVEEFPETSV
In words: whole-cell patch-clamp of hTRPV3 currents in HEK293T cells activated by 2-APB. As to conditions: for inhibition at 50 µM: agonist 2-APB 50 μM. The procedure: HEK293T cell line was obtained from the Cell Resource Center, Peking Union Medical College. HEK293T cells were maintained in Dulbecco’s modified Eagle’s medium (DMEM, Gibco) supplemented with 10% fetal bovine serum at 37 °C with 5% CO2. HEK293T cells were seeded onto glass coverslips 1 day in advance and transiently transfected with […] complementary deoxyribonucleic acids of human TRPV3 (hTRPV3, accession number NM_145068.4), hTRPV1 (accession number NM_080704.3), mTRPV2 (accession number NM_011706.2), hTRPV4 (accession number NM_021625.5), hTRPA1 (accession number NM_007332.3), and hTRPM8 (accession number NM_024080.5) through Lipofectamine 2000 (Invitrogen) following the manufacture’s protocol. The next day, determine the plasmid transfection status by observing green fluorescence based on expression of enhanced GFP as an indicator. All WT or mutant hTRPV3 complementary deoxyribonucleic acid plasmids were confirmed by DNA sequencing. When conducting experiments on HEK293T cells transfected with G573S point mutant TRPV3 plasmid, we replaced culture medium with or without compounds after 4 h of transfection and then observed green fluorescence of HEK293T cell after 10 h. As for the relative fluorescence intensity, we convert the image to 8 bit grayscale using ImageJ (Https://imagej.net/software/fiji/downloads) and set an appropriate threshold value to reduce background noise and enhance the image contrast.
All patch-clamp recordings were conducted 16 to 24 h after transfection using an EPC10 amplifier powered by PatchMaster software (HEKA) (https://www.heka.com/downloads/downloads_main.html#down_patchmaster) at room temperature. The borosilicate glass pipettes were pulled using a DMZ universal electrode puller (Zeitz-Instruments GmbH) to achieve the resistances of three to 5 MΩ (for whole-cell recordings) or five to 9 MΩ (for inside-out patch recordings). Currents were recorded at a potential ramp from −100 mV to +100 mV for 1000 ms with 1000-ms intervals (for whole-cell recordings) or a persistent potential of −60 mV (inside-out patch recordings). Both pipette solution and bath solution contained (in mM): 130 NaCl, 3 Hepes, and 0.2 EDTA (pH = 7.2–7.4). All recording data were analyzed using Igor Pro (Wave-metrics) (https://www.wavemetrics.com/order/order_igordownloads.htm) and Origin 8.6 (Origin Lab) (https://www.originlab.com/doc/zh/Quick-Help/Download-Installer).

Each structure is given as a SMILES string. Where two headings read alike, the source gives them in different places.

T1 sequence (Q8NER1 whole entry): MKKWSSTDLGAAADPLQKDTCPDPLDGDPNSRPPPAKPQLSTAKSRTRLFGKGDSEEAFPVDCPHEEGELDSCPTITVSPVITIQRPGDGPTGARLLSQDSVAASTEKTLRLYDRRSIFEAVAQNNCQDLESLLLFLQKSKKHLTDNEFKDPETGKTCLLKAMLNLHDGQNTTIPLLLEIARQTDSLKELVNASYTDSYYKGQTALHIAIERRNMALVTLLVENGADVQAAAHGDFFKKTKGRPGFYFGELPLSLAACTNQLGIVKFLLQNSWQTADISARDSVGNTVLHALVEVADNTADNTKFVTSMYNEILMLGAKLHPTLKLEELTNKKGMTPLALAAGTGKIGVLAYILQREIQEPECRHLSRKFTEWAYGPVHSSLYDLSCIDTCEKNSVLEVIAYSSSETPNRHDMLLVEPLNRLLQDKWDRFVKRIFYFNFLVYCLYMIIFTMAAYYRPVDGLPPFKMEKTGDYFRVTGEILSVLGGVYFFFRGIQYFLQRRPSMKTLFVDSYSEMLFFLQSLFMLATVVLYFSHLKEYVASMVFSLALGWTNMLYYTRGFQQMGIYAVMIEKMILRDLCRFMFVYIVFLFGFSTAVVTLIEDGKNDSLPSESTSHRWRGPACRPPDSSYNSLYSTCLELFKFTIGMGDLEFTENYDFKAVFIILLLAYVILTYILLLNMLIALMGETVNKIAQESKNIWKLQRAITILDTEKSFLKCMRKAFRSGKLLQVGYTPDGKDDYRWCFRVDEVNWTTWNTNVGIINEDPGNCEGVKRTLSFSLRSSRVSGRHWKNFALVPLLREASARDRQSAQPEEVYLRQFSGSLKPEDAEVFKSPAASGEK

`O=C(/C=C/c1ccc(O)c(O)c1)O[C@H](Cc1ccc(O)c(O)c1)C(=O)O` [ROSA, rosmarinic acid]: the inhibition (commonly the change of the read-out against control, counted positive when it falls) at 50 µM is 1.8 ± 11.7% on hTRPV1; 21 ± 6.1% at mTRPV2; around 74.3% at hTRPV3 (HEK-293T, ROSA 50 μM, Fig. 2G, read-out: inhibition of TRPV3 currents); around 75.3% on hTRPV3 (HEK-293T, compound 50 μM, Fig. 3I, n = 4-5, read-out: inhibition of hTRPV3 currents). Moreover, the cell death ratio in test [1] turned out to be 17%. Further, the IC50 (usually the point on the concentration scale where inhibition reaches its midpoint) on hTRPV3 amounted to 12.4 ± 4.2 µM. The inhibition at 100 µM at hTRPV3 (HEK-293T, ROSA 100 μM, 2-APB, WT, read-out: inhibition of macroscopic WT hTRPV3 currents) was 87%.
